Experimental data reported in ChEMBL document CHEMBL1150940, “New melampolides from Schkuhria schkuhrioides” (1998).
Converted amounts (≈) assume the structure as drawn.

Assays:
[1] = Cytotoxicity against human UISO cells; assay type: functional; conditions: read-out: ED50 (the source's name)
[2] = Cytotoxicity against human COLON cells; assay type: functional; conditions: read-out: ED50 (the source's name)

Q: What does the source list for `C=C1C(=O)O[C@@H]2/C=C(\C)CC/C=C(/C=O)C[C@@H](O)[C@@H]12`?
A: EC50 [1]: 1.82 µg/mL (≈ 6.94 µM); EC50 [2]: 0.9 µg/mL (≈ 3.43 µM)
